# Results reported in patent publication US10906899B2, “Bicyclic fused pyrazole derivatives for the treatment of RSV” (GEORGIA STATE UNIVERSITY RESEARCH FOUNDATION, INC., priority 2016, dated 2021).
# pEC50: −log10 of the molar value. Like-named read-outs stand apart in the source and are kept apart here.
# System: RSV
# Assay: Dose-response counterscreen: luciferase reporter virus infection of BEAS-2B cells (EC50)
# Format: cell-based, respiratory syncytial virus (RSV)
# Conditions: human respiratory syncytial virus, read-out: Potency Range (EC50 values)
SMILES,pEC50 (B series compounds),"pEC50 (A series compounds, anti-RSV potency)"
Cc1c2c(=O)n(-c3ccccn3)n(Cc3ccccc3)c2cc(=O)n1Cc1ccc(Cl)c(Cl)n1 [AVG-172],6.00 to 7.00,–
Cc1c2c(=O)n(-c3nc4ccc(Cl)cc4s3)n(Cc3ccccc3)c2cc(=O)n1Cc1cccc(Cl)n1 [AVG-185],6.00 to 7.00,–
COc1cc(C2CC(=O)Nc3nn(-c4nc5ccccc5s4)cc32)ccc1OC1CCCC1 (stereo not shown) [AVG-006b],–,5.00 to 6.00
Cc1c2c(=O)n(-c3nc4ccccc4s3)n(Cc3ccccc3)c2cc(=O)n1CC1CCCO1 (stereo not shown) [AVG-074],4.70 to 5.00,–
